Read-outs that look alike come from different tables or passages of the source.
Legend:
[1] = test system: skin cancer A431 cells, colon cancer HCT116 cells, gastric cancer MKN45 cells, ovarian cancer SKOV-3 cells [皮肤癌A431细胞、结肠癌HCT116细胞、胃癌MKN45细胞、卵巢癌SKOV-3细胞]; assay: CCK-8 in vitro tumour cell inhibition assay (Example 10, Table 1); assay type: cell-based; details: A431, HCT116, MKN45, SKOV-3 cells; statement on Table 1 (IC50)
[2] = test system: human breast cancer MDA-MB-231 cells [人乳腺癌MDA-MB-231细胞]; assay: CCK-8 in vitro tumour cell inhibition assay, MDA-MB-231 (Example 11, Tables 2-4); assay type: cell-based

IC50 ([2]; 48h) [nM]	IC50 ([2]; 72h) [nM]	SMILES	inhibition at 5 µM ([2]; 48h, read-out: inhibition rate) [%]	inhibition at 5 µM ([2]; 72h, read-out: inhibition rate) [%]	inhibition at 50 µM ([2]; 24h, read-out: inhibition rate) [%]	inhibition at 50 µM ([2]; 48h, read-out: inhibition rate) [%]	inhibition at 50 µM ([2]; 72h, read-out: inhibition rate) [%]	other results
2880	340	O=C1C=CC2(C=C1)OCC(=O)N2c1nc(-c2ccccc2)nn1-c1ccccc1 [LHDYX-1, 4-(1,3-二苯基-1H-1,2,4-三氮唑-5-基)-1-氧-4-氮螺[4.5]癸-6,9-二烯-3,8-二酮]						inhibition of cancer cells compared with doxorubicin [1]: 对癌细胞的抑制作用高于目前临床中已广泛使用抗肿瘤药物阿霉素(Doxorubicin); inhibitory activity on cancer cells [1]: 不同程度的抑制活性; IC50 ([2]; 24h): 26000 nM
		COC1=CC(=O)C=CC12OCC(=O)N2c1nc(-c2ccccc2)nn1-c1ccccc1 (stereo not shown) [LHDYX-4, 4-(1,3-二苯基-1H-1,2,4-三氮唑-5-基)-6-甲氧基-1-氧-4-氮螺[4.5]癸-6,9-二烯-3,8-二酮]	4.3	17.2	42	98.4	100	inhibition at 5 µM ([2]; 24h, read-out: inhibition rate (class symbol)): < 0%
2960	1460	Cn1nc(N2C(=O)COC23C=CC(=O)C=C3)nc1-c1ccccc1 [LHDYX-3, 4-(1-甲基-5-苯基-1H-1,2,4-三氮唑-3-基)-1-氧-4-氮螺[4.5]癸-6,9-二烯-3,8-二酮]						
		Cn1nc(-c2ccccc2)nc1N1C(=O)COC12C=CC(=O)C=C2 [LHDYX-2, 4-(1-甲基-3-苯基-1H-1,2,4-三氮唑-5-基)-1-氧-4-氮螺[4.5]癸-6,9-二烯-3,8-二酮]	94.7	96.2	100	93.5	96.4	inhibition at 0.05 µM ([2]; 24h, read-out: inhibition rate): 19.1%; inhibition at 0.05 µM ([2]; 48h, read-out: inhibition rate): 19%; inhibition at 0.05 µM ([2]; 72h, read-out: inhibition rate): 39.4%; inhibition at 0.5 µM ([2]; 24h, read-out: inhibition rate): 17.1%; inhibition at 0.5 µM ([2]; 48h, read-out: inhibition rate): 76.4%; inhibition at 0.5 µM ([2]; 72h, read-out: inhibition rate): 95.3%; inhibition at 5 µM ([2]; 24h, read-out: inhibition rate): 39.9%

— patent publication CN102850337A, “多氮唑联螺烯酮类化合物及其制备方法和用途” (Sichuan University, priority 2011, dated 2013)
